# Test results published in patent publication US9849130B2 (KamTek, Inc., priority 2014, dated 2017).
# How the values were obtained:
# [1] = system: Enterococcus faecalis; experiment: MIC by microdilution in Mueller-Hinton broth against Enterococcus faecalis strains; format: cell-based
# [2] = system: Bifidobacterium strains; experiment: MIC by microdilution in BHI broth against Bifidobacterium strains; format: cell-based, Bifidobacterium spp.; conditions: BHI broth
# [3] = system: Enterococci faecium; experiment: MIC by microdilution in Mueller-Hinton broth against Enterococci faecium strains; format: cell-based, Enterococcus faecium; conditions: Mueller-Hinton broth
# [4] = system: Escherichia coli strains; experiment: MIC by microdilution in Mueller-Hinton broth against Escherichia coli strains; format: cell-based; conditions: for MIC: Mueller-Hinton broth
# [5] = system: Lachnospiraceae and related bacterial strains; experiment: MIC against Lachnospiraceae and related bacterial strains; format: cell-based, Lachnospiraceae spp.; conditions: broth microdilution, brucella broth
# [6] = system: Staphylococcus aureus strains; experiment: MIC by microdilution in Mueller-Hinton broth against Staphylococcus aureus strains; format: cell-based
# [7] = system: Fusobacterium; experiment: MIC by microdilution in Brucella broth against Fusobacterium; format: cell-based, Fusobacterium spp.; conditions: Brucella broth
# [8] = system: Clostridium difficile (CD) strains; experiment: microbe, parasite or virus in culture; format: cell-based
# [9] = system: Bacteroides Strains; experiment: MIC by microdilution in Brucella broth against Bacteroides strains; format: cell-based, Bacteroides spp.
# [10] = system: C. perfringens MH310; experiment: microbe, parasite or virus in culture; format: cell-based; conditions: C. perfringens MH310
compound,measurement,setting,value
CCN=c1cc2n(-c3cccc(C(F)(F)F)c3)c3ccccc3nc-2cc1Nc1cccc(C(F)(F)F)c1 [B4129],MIC,[1]; E. faecalis NR 31884,>32 µg/mL
same,MIC,[1]; E. faecalis NR 31885,>32 µg/mL
same,MIC,[1]; E. faecalis NR 31886,>32 µg/mL
same,MIC,[1]; E. faecalis NR 31887,>32 µg/mL
same,MIC,[1]; E. faecalis NR 31888,>32 µg/mL
same,MIC,[2]; Bifidobacterium adolescentis HM-633,>32 µg/mL
same,MIC,[2]; Bifidobacterium breve HM-411,>32 µg/mL
same,MIC,[2]; Bifidobacterium breve HM-412,0.25 µg/mL
same,MIC,[2]; Bifidobacterium breve HM-856,>32 µg/mL
same,MIC,[2]; Bifidobacterium breve HM-1120,>32 µg/mL
same,MIC,[2]; Bifidobacterium longum HM-845,≦0.031 μg/ml
same,MIC,[2]; Bifidobacterium longum HM-846,0.25 µg/mL
same,MIC,[2]; Bifidobacterium longum HM-847,2 µg/mL
same,MIC,[2]; Bifidobacterium sp. HM-30,4 µg/mL
same,MIC,[2]; Bifidobacterium sp. HM-868,>32 µg/mL
same,MIC,[3]; E. faecium NR 31903,>32 µg/mL
same,MIC,[3]; E. faecium NR 31909,>32 µg/mL
same,MIC,[3]; E. faecium NR 31912,>32 µg/mL
same,MIC,[3]; E. faecium NR 31915,>32 µg/mL
same,MIC,[3]; E. faecium NR 31916,>32 µg/mL
same,activity against E. coli (in words),[4],relatively inactive
same,MIC,[4]; Escherichia coli strain NR 6,>32 µg/mL
same,MIC,[4]; Escherichia coli strain NR 8,>32 µg/mL
same,MIC,[4]; Escherichia coli strain NR 96,>32 µg/mL
same,MIC,[4]; Escherichia coli strain NR 104,>32 µg/mL
same,MIC,[4]; Escherichia coli strain NR 17626,>32 µg/mL
same,MIC,[4]; Escherichia coli strain NR 17627,>32 µg/mL
same,MIC,[4]; Escherichia coli strain NR 17633,>32 µg/mL
same,MIC,[4]; Escherichia coli strain NR 17647,>32 µg/mL
same,MIC,[4]; Escherichia coli strain NR 17650,>32 µg/mL
same,MIC,[4]; Escherichia coli strain NR 17661,>32 µg/mL
same,MIC,[5]; Clostridiales bacterium HM-84,≦0.031 μg/ml
same,MIC,[5]; Clostridiales bacterium HM-182,0.125 µg/mL
same,MIC,[5]; Eubacterium sp. HM-178,0.125 µg/mL
same,MIC,[5]; Lachnospiraceae sp. HM-7,≦0.031 μg/ml
same,MIC,[5]; Lachnospiraceae sp. HM-150,0.125 µg/mL
same,MIC,[5]; Lachnospiraceae sp. HM-153,0.125 µg/mL
same,MIC,[5]; Lachnospiraceae sp. HM-154,0.125 µg/mL
same,MIC,[5]; Lachnospiraceae sp. HM-157,0.25 µg/mL
same,MIC,[5]; Lachnospiraceae sp. HM-161,0.125 µg/mL
same,MIC,[5]; Lachnospiraceae sp. HM-480,0.062 µg/mL
same,MIC,[5]; Lachnospiraceae sp. HM-558,0.125 µg/mL
same,MIC,[5]; Lachnospiraceae sp. HM-768,≦0.031 μg/ml
same,MIC,[5]; Lachnospiraceae sp. HM-868,>32 µg/mL
same,MIC,[5]; Peptostreptococcaceae sp. HM-766,0.5 µg/mL
same,MIC,[6]; Staphylococcus aureus strain NR 10129,32 µg/mL
same,MIC,[6]; Staphylococcus aureus strain NR 10186,>32 µg/mL
same,MIC,[6]; Staphylococcus aureus strain NR 10187,>32 µg/mL
same,MIC,[6]; Staphylococcus aureus strain NR 10188,>32 µg/mL
same,MIC,[6]; Staphylococcus aureus strain NR 10189,>32 µg/mL
same,MIC,[6]; Staphylococcus aureus strain NR 10191,>32 µg/mL
same,MIC,[6]; Staphylococcus aureus strain NR 10192,>32 µg/mL
same,MIC,[6]; Staphylococcus aureus strain NR 10193,>32 µg/mL
same,MIC,[6]; Staphylococcus aureus strain NR 10194,32 µg/mL
same,MIC,[6]; Staphylococcus aureus strain NR 10198,>32 µg/mL
same,MIC,[7]; F. nucleatum HM-75,>32 µg/mL
same,MIC,[7]; F. nucleatum HM-260,>32 µg/mL
same,MIC,[7]; F. nucleatum HM-992,>32 µg/mL
same,MIC,[7]; F. nucleatum HM-993,8 µg/mL
same,MIC,[7]; F. nucleatum HM-994,>32 µg/mL
same,MIC,[7]; F. nucleatum HM-995,>32 µg/mL
same,MIC,[7]; F. nucleatum HM-996,>32 µg/mL
same,MIC,[7]; F. nucleatum HM-997,>32 µg/mL
same,MIC,[7]; Fusobacterium sp. HM 42,>32 µg/mL
same,MIC,[7]; Fusobacterium sp. HM 57,>32 µg/mL
same,MIC,[7]; Fusobacterium sp. HM-556,>32 µg/mL
same,MIC,[7]; Fusobacterium sp. HM-758,>32 µg/mL
same,MIC,[7]; Fusobacterium sp. HM-871,>32 µg/mL
same,MIC,[7]; Fusobacterium sp. HM-874,>32 µg/mL
same,MIC,[7]; Fusobacterium sp. HM-875,>32 µg/mL
same,"antibacterial activity against CD, fold greater than MET",[8],32 fold
same,"antibacterial activity against CD, fold greater than VAN",[8],16 fold
same,MIC,"[8]; CD strain BAA1805 (hyper-virulent strain BI/NAP1/027), BB",0.062 µg/mL
same,MIC50,[8]; n = 37,≦0.031 μg/ml
same,MIC90,[8]; n = 37,0.125 µg/mL
same,MIC Range,[8]; n = 37,≦0.031-0.25 μg/ml
same,MIC,[9]; B. caccae HM728,2 µg/mL
same,MIC,[9]; B. eggerthii HM210,2 µg/mL
same,MIC,[9]; B. fragilis HM709,2 µg/mL
same,MIC,[9]; B. fragilis HM710,2 µg/mL
same,MIC,[9]; B. fragilis HM714,4 µg/mL
same,MIC,[9]; B. ovatus HM222,0.25 µg/mL
same,MIC,[9]; B. spp. HM18,16 µg/mL
same,MIC,[9]; B. spp. HM19,0.5 µg/mL
same,MIC,[9]; B. spp. HM20,2 µg/mL
same,MIC,[9]; B. spp. HM22,2 µg/mL
same,MIC,[9]; B. spp. HM23,16 µg/mL
same,MIC,[9]; B. spp. HM27,1 µg/mL
same,MIC,[9]; B. spp. HM28,2 µg/mL
same,MIC,[9]; B. spp. HM58,2 µg/mL
same,MIC,[9]; B. stercoris HM1036,0.25 µg/mL
same,MIC,[10]; BB,0.25 µg/mL
same,MIC,[10]; BHI,2 µg/mL
